For 95 molecules, EC50 results are on record in PubChem BioAssay AID2610 (Broad Institute, 2010).

For orientation: EC50 means the concentration giving half of the maximal effect.

Inconclusive results are not listed. Activity calls are given as the source filed them.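 The calls were made as follows: active = EC50 no more than tenfold above the top concentration tested, with valid fit and all samples agreeing; inconclusive = flat fit at 30 to 70% inhibition, poor fit, or split samples; inactive = EC50 beyond tenfold the top concentration tested.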 Some results are limits rather than exact numbers.

This assay relates to BJeLR fibroblast viability, Alamar Blue fluorescence, 48 h. Nature of the assay: cytotoxicity toward RAS-transformed BJeLR fibroblasts, dose response, cell-based, alamar blue fluorescence, 48 h, cherrypicked samples (AID 2610).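 Also: BJ fibroblasts with hTERT plus SV40 large and small T and HRAS V12; EC50 for loss of viable cells so potency reflects cytotoxic compounds.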 A general note: The colour change of resazurin is a common sign of viable cells or microbes.
As to `O=Cc1ccc(O)c2ncccc12`, the half-maximal effective concentration (EC50) was 0.463 µM.

`CN(C)CCNC(=O)c1cc2c(s1)-c1ccc(Cl)cc1SC2`: the concentration giving a half-maximal response (EC50) is 1.12 µM.

For `Nc1ncnc2c1ccn2[C@@H]1O[C@H](CO)[C@@H](O)[C@H]1O`, the EC50 was < 0.104 µM.

`COc1ccccc1/C=C1\SC(=O)N(CCC(=O)NCCCn2ccnc2)C1=O`: the EC50 was > 13.3 µM (inactive).

For the molecule `COC(=O)c1cccc(Nc2c3c(nc4ccccc24)CCC3)c1`, the EC50 is 2.6 µM.

On to `CCCC(=O)OCCNc1cc(Sc2nccn2C)c2nonc2c1[N+](=O)[O-]`, for which the EC50 is 2.51 µM.

For `O=C(CCl)N=c1sccn1Cc1ccccc1Cl`, the concentration for a half-maximal effect (EC50) was < 0.0882 µM.

As for `COc1ccc(-c2coc3cc4oc(=O)c5ccccc5c4cc23)cc1F`, the EC50 was < 0.104 µM.

Turning to `COc1cccc(N(C(=O)CCl)C(C(=O)NCCc2ccccc2)c2cccs2)c1` (stereo not given), the EC50 was 0.212 µM.

Take `C/C(=N\Nc1ccc2nncn2n1)c1ccccn1`: the EC50 is 1.14 µM.

Regarding `CCCCCCCCCCCCn1ccc(=N)cc1`, the concentration for a half-maximal effect (EC50) was 0.522 µM.

In the case of `O=C1C(=O)c2ccc(-c3ccccc3)cc2-c2ccccc21`, the EC50 is 0.926 µM.

Consider `CCOc1ccc(N=Cc2c(C)[nH]n(-c3nc4ccccc4[nH]3)c2=O)cc1`, for which the EC50 was > 13.3 µM (inactive).

For the molecule `Cc1cccc(N2CCN(C(=S)Nc3ccc4nc(N5CCN(C)CC5)cc(C)c4c3)CC2)c1C`, the half-maximal effective concentration (EC50) is 0.864 µM.

In the case of `COc1cccc(CSc2nc3ccccc3cc2C=O)c1`, the EC50 was 0.111 µM.

In the case of `O=C(CCl)Nc1cc(SCC(O)CO)cc([N+](=O)[O-])c1` (stereo not given), the EC50 was 0.997 µM.

Consider `COc1ccccc1N1CCN(C(=O)c2cc(=O)c3cc(C)cc(C)c3o2)CC1`, for which the EC50 is < 0.104 µM.

Regarding `CCn1c(C)nc2cc(-c3nc4n(n3)Cc3ccccc3-4)ccc21`, the EC50 was > 13.3 µM (inactive).

Turning to `COc1ccc(N(C(=O)CCl)C(C(=O)NCCc2ccccc2)c2cccs2)cc1Cl` (stereo not given), the 50% effective concentration (EC50) was < 0.0502 µM.

Consider `COc1ccc(/C=C2\CN(Cc3ccccc3)C/C(=C\c3ccc(OC)c(O)c3)C2=O)cc1O`, for which the EC50 is 0.559 µM.

Regarding `O=C(Oc1ccc(-c2nc(-c3ccccn3)no2)cc1)c1ccccc1`, the EC50 was > 13.3 µM (inactive).

In the case of `COc1ccc2c(c1)sc(N)[n+]2Cc1cc(C)cc2cccnc12`, the EC50 was 0.266 µM.

`CC(=O)Nc1ccc(/C=N/Nc2nc3ccccc3[nH]2)cc1`: the EC50 is > 13.3 µM (inactive).

In the case of `CCOc1ccc2nc(NC(=O)c3ccoc3C)sc2c1`, the EC50 is > 13.3 µM (inactive).

In the case of `Nc1nc(N)c2c(ccc3nccc32)[nH]1`, the EC50 is > 13.3 µM (inactive).

Regarding `c1ccc2nc(-c3nc4ccccc4o3)ccc2c1`, the EC50 is > 13.3 µM (inactive).

As to `Cc1cc(C)c2c(CCl)cc(=O)oc2c1`, the EC50 is 0.116 µM.

On to `Cc1cc(-n2c(SCC(=O)NCCC3=CCCCC3)nc3n[nH]c(C)c3c2=N)ccc1Cl`, for which the EC50 is > 13.3 µM (inactive).

For the molecule `C/C(=N\NC(=O)c1ccccc1F)c1ccccn1`, the EC50 was 4.14 µM.

With `COc1cc([C@H]2c3[nH]c4ccccc4c3C[C@H]3C(=O)N4[C@@H](c5cc(OC)c(OC)c(OC)c5)c5[nH]c6ccccc6c5C[C@H]4C(=O)N23)cc(OC)c1OC`, the EC50 was > 13.3 µM (inactive).

With `O=[N+]([O-])c1c(Nc2ccccn2)cc(Cl)c2nonc12`, the EC50 is 2.11 µM.

As to `COc1ccc(C(=O)c2cc([N+](=O)[O-])ccc2N2CCOCC2)cc1`, the 50% effective concentration (EC50) is < 0.104 µM.

On to `O=C(NCc1cccnc1)c1ccc(-c2cc3ccccc3oc2=O)cc1`, for which the EC50 is 1.34 µM.

With `Cn1cnc([N+](=O)[O-])c1Sc1ncnc2nc[nH]c12`, the EC50 was > 13.3 µM (inactive).

For `C[C@@H]1C=CC(=O)O[C@@H]1c1ccc(C(F)(F)F)cc1`, the EC50 is 1.97 µM.

Consider `C[C@]12CCC3C(CCC4=CC(O)CC[C@@]43/C=N/O)C1(O)CCC2C1=CC(=O)OC1` (stereo not given in full), for which the 50% effective concentration (EC50) was 0.294 µM.

Take `O=C(N/N=C(\c1ccccc1)c1cccnc1)c1cccc(F)c1`: the EC50 was 0.697 µM.

Turning to `Cc1cccc(C)c1NS(=O)(=O)c1ccc(-c2cnc(C3CC3)o2)cc1`, the EC50 is < 0.104 µM.

For the molecule `Cc1ccc(N(C(=O)CCl)C(C(=O)NC2CCCCC2)c2cccnc2)cc1C` (stereo not given), the 50% effective concentration (EC50) is < 0.0892 µM.

For the molecule `COc1cccc(NC(=O)n2ncc3c(C)cccc32)c1`, the EC50 was > 13.3 µM (inactive).

Take `COc1ccc2[nH]c(=O)c(CN(Cc3cccs3)S(=O)(=O)c3cccc4nsnc34)cc2c1`: the concentration giving a half-maximal response (EC50) was 1.46 µM.

On to `COc1ccc2nc(C)cc(N/N=C/c3ccc(F)cc3)c2c1`, for which the EC50 was 0.292 µM.

`Cc1nc(N)nc(N)c1CCCc1ccc(Cl)c(Cl)c1`: the EC50 was > 13.3 µM (inactive).

With `Cc1ccccc1Nc1nc(N)nc(CCl)n1`, the EC50 was 2.29 µM.

For the molecule `CCc1ccc(NC(=O)[C@H](Cc2c[nH]c3ccccc23)NC(=O)[C@@H]2Cc3ccccc3CN2)cc1`, the EC50 was > 13.3 µM (inactive).

Take `CC1CCCCC1N(C)C1CCN(C(=O)CNC(=O)/C=C/c2cccc(Cl)c2)CC1` (stereo not given): the concentration for a half-maximal effect (EC50) is 1.29 µM.

Take `Cc1onc(C(=O)N2CCN(C(c3ccccc3)c3ccccc3)CC2)c1[N+](=O)[O-]`: the concentration giving a half-maximal response (EC50) is 0.762 µM.

Take `Cc1cc(C)cc(NS(=O)(=O)c2ccc(-c3cnc(C4CC4)o3)cc2)c1`: the EC50 was < 0.104 µM.

As to `O=C(Sc1cccc2cccnc12)c1ccccc1Br`, the EC50 was 0.337 µM.

As to `Oc1c(N=Nc2ccccn2)ccc2ccccc12`, the EC50 was 0.241 µM.

Consider `O=C(/C=C\c1ccco1)Nc1cc([N+](=O)[O-])ccc1F`, for which the EC50 is 0.256 µM.

Turning to `Cc1cccc(N(C)S(=O)(=O)c2ccc(-c3cnc(C4CC4)o3)cc2)c1`, the EC50 is < 0.104 µM.

`CC(=O)c1ccc(Oc2cc(C)nc(-n3nc(C)cc3C)n2)cc1`: the EC50 was < 0.104 µM.

Turning to `CCOC(=O)C1CCN(S(=O)(=O)c2c(Cl)ccc3nonc23)CC1`, the EC50 is 0.407 µM.

With `COC(=O)C[C@](O)(CCCC(C)(C)O)C(=O)O[C@@H]1C(OC)=C[C@]23CCCN2CCc2cc4c(cc2[C@H]13)OCO4`, the 50% effective concentration (EC50) was < 0.0347 µM.

Consider `c1ccc(-c2ccc(-c3nc(-c4ccccn4)no3)cc2)cc1`, for which the EC50 was > 13.3 µM (inactive).

`Cc1cccc(Nc2nc(N)nc(CCl)n2)c1C`: the EC50 is 0.468 µM.

Regarding `CCCCN=C[C@]12CCC(O)CC1(O)CCC1[C@@H]2CC[C@]2(C)[C@H](C3C=CC(=O)O3)CCC12O` (stereo not given in full), the half-maximal effective concentration (EC50) is 0.315 µM.

Regarding `COc1ccc(N2C(=O)/C(=C/c3ccc(C)o3)C(=O)NC2=S)cc1`, the EC50 is > 13.3 µM (inactive).

Take `COCCCNC(=O)c1ccc2c3c(onc13)-c1ccccc1C2=O`: the half-maximal effective concentration (EC50) was 3.15 µM.

Take `Oc1ccccc1N=Nc1nc(-c2ccccc2)c(-c2ccccc2)[nH]1`: the concentration giving a half-maximal response (EC50) was 0.176 µM.

`CCCCCCCN(C(=O)CCl)c1cccc(C)c1`: the 50% effective concentration (EC50) is 0.429 µM.

For the molecule `CN(C)CCCNc1c2ccccc2nc2ccccc12`, the EC50 was 0.506 µM.

`O=C(NCCCn1ccnc1)c1ccc(N2CCCCCC2)c([N+](=O)[O-])c1`: the 50% effective concentration (EC50) is 6.68 µM.

On to `Cc1ccc(C2CC(c3cccs3)=NN2C(=O)CCl)cc1` (stereo not given), for which the EC50 was 0.727 µM.

In the case of `CCN(CC)CCN1C(=O)/C(=C\c2ccc(Cl)c([N+](=O)[O-])c2)SC1=Nc1ccc(OC)cc1`, the EC50 is 0.563 µM.

Regarding `O=C(N/N=C/c1ccc([N+](=O)[O-])o1)c1cc2ccccc2o1`, the EC50 was 7.5 µM.

Regarding `O=C(NC(Nc1nc2ccc([N+](=O)[O-])cc2s1)(C(F)(F)F)C(F)(F)F)c1ccccc1`, the EC50 is 0.239 µM.

Take `COC(=O)C1CC23C=CCN4CCC5(c6ccccc6NC15C2C)C43` (stereo not given): the half-maximal effective concentration (EC50) is < 0.104 µM.

On to `COc1ccc2[nH]c3c(NCCC4=CCCCC4)ncnc3c2c1`, for which the EC50 is > 13.3 µM (inactive).

For `CCOC(=O)c1ccc(NC(=O)Nc2ccon2)cc1`, the EC50 was < 0.104 µM.

Take `O=C(c1ccc2c3n(nc2c1)-c1ccccc1CO3)N1CCCCC1`: the EC50 is > 13.3 µM (inactive).

For the molecule `CC1CC(C)CN(S(=O)(=O)c2ccc(C(=O)NCCCn3ccnc3)cc2)C1` (stereo not given), the EC50 was 0.15 µM.

For the molecule `C/C(=N\Nc1nc2ccccc2[nH]1)c1ccccn1`, the EC50 is 0.165 µM.

With `O=S(=O)(c1ccc2c(c1)C(=NO)c1cc(S(=O)(=O)N3CCCCC3)ccc1-2)N1CCCCC1`, the EC50 was < 0.277 µM.

Regarding `Cc1ccc(/C=C2\SC(=S)N(CCCC(=O)N3CCOCC3)C2=O)cc1`, the concentration for a half-maximal effect (EC50) is 3.58 µM.

As to `COc1ccc(S(=O)(=O)N2c3ccc(F)cc3CCC2C)cc1` (stereo not given), the EC50 is < 0.104 µM.

In the case of `CC(C)(C)c1nnc(N/N=C/c2cc(Br)ccc2O)n(N)c1=O`, the 50% effective concentration (EC50) is 1.4 µM.

Regarding `O=C(N/N=C/c1cccs1)c1cc(-c2ccncc2)nc2ccccc12`, the EC50 was 0.113 µM.

As for `S=C(N/N=C/c1ccc2ncccc2c1)Nc1ccccc1`, the EC50 is > 13.3 µM (inactive).

Turning to `CCn1cc(C(=O)NCc2ccco2)c(=O)c2cc(S(=O)(=O)N3CC(C)CC(C)C3)ccc21` (stereo not given), the EC50 was > 13.3 µM (inactive).

For `O=C(COc1ccc(Cl)cc1)Nc1ccc(C(=O)NCc2cccnc2)cc1`, the EC50 is 4.42 µM.

For the molecule `O=c1c2ccccc2cnn1-c1nc2ccccc2[nH]1`, the EC50 is > 13.3 µM (inactive).

As to `Nc1nc(CCl)nc(Nc2ccc3ccccc3c2)n1`, the EC50 was 0.192 µM.

Turning to `COc1ccc(CCNc2nnc(Sc3nnnn3-c3ccccc3)s2)cc1OC`, the EC50 is 0.344 µM.

Turning to `COc1ccc2nc(NC(=O)c3ccoc3C)sc2c1`, the EC50 was > 13.3 µM (inactive).

For `Cc1ccc(C(=O)c2cc([N+](=O)[O-])ccc2N2CCCCC2)c(C)c1`, the EC50 is < 0.104 µM.

For the molecule `CC[C@@]1(O)C(=O)OCc2c1cc1n(c2=O)Cc2cc3c(CN(C)C)c(O)ccc3nc2-1`, the EC50 is < 0.0392 µM.

As for `CC(C)(C)c1ccc(-n2nc(C#N)c(Cl)cc2=O)cc1`, the concentration for a half-maximal effect (EC50) is 0.963 µM.

As for `COc1ccc(/C=C/c2cc(-c3ccc(C)cc3)o[n+]2C)cc1`, the EC50 was 0.654 µM.

In the case of `COc1cc(OC)c(C2=NOC(C(=O)NCc3cccs3)C2)cc1Cl` (stereo not given), the EC50 is 2.32 µM.

For `CC(C)(C)c1ccc(C(=O)Nc2ccc(C(=O)NCc3cccnc3)cc2)cc1`, the EC50 is < 0.118 µM.

For `CCN1CCN(CCNC(=O)c2ccc(/C=C3/Sc4ccccc4N(Cc4ccccc4C)C3=O)cc2)CC1`, the EC50 is > 13.3 µM (inactive).

With `Cc1cccnc1Nc1nc(-c2ccccn2)cs1`, the concentration giving a half-maximal response (EC50) was < 0.142 µM.

For `CC[C@@]1(O)C(=O)OCc2c1cc1n(c2=O)Cc2cc3ccccc3nc2-1`, the concentration giving a half-maximal response (EC50) is < 0.0304 µM.
